Experimental data published in patent EP4678638A1, “NEW E3 UBIQUITIN LIGASE LIGAND, PROTEIN DEGRADATION AGENT AND USE THEREOF” (priority 2023, dated 2024).

Legend:
GSPT1 = molecular target: T1, GSPT1 (Homo sapiens, UniProt P15170+Q96SW2); assay: Western blot degradation of GSPT1 (hPBMC); type: cell-based; conditions: Table D16
T1 construct: evaluate the effects of the compounds of the present disclosure on the expression of target proteins in cells; endogenous in cells; host or cells: hPBMC
Summary of the method: (§1)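 Degradation is assessed by immunoblotting lysates of treated cells. Target bands are quantified by grayscale and normalised to an internal control, so degradation rate equals 100% minus % remaining.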

IKZF3 = molecular target: T2, IKZF3 (Homo sapiens, UniProt Q96SW2+Q9UKT9); assay: Western blot degradation of IKZF3 (hPBMC); type: cell-based; conditions: Table D16
T2 construct: evaluate the effects of the compounds of the present disclosure on the expression of target proteins in cells; endogenous in cells; host or cells: hPBMC
Summary of the method: as §1

IKZF1 = molecular target: T3, IKZF1 (Homo sapiens, UniProt Q13422+Q96SW2); assay: Western blot degradation of IKZF1 (hPBMC); type: cell-based; conditions: Table D16
T3 construct: evaluate the effects of the compounds of the present disclosure on the expression of target proteins in cells; endogenous in cells; host or cells: hPBMC
Summary of the method: as §1

IKZF2 = molecular target: T4, IKZF2 (Homo sapiens, UniProt Q96SW2+Q9UKS7); assay: Western blot degradation of IKZF2 (hPBMC); type: cell-based; conditions: Table D16
T4 construct: evaluate the effects of the compounds of the present disclosure on the expression of target proteins in cells; endogenous in cells; host or cells: hPBMC
Summary of the method: as §1

WEE1 = molecular target: T5, WEE1 (Homo sapiens, UniProt P30291+Q96SW2); assay: Western blot degradation of WEE1 (hPBMC); type: cell-based; conditions: Table D16
T5 construct: evaluate the effects of the compounds of the present disclosure on the expression of target proteins in cells; endogenous in cells; host or cells: hPBMC
Summary of the method: as §1

MCF7 = assay: CCK-8 proliferation, MCF7 (MCF-7); type: cell-based; conditions: Homo sapiens, MCF7; CCK-8; read-out: Inhibitory activity (IC50) on tumor cell proliferation, MCF-7
Summary of the method: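 CCK-8 viability readout; IC50 from growth-inhibition curve fitting. Cells plated, dosed 24h later with a 10-point series, top 10µM, 5-fold steps. Culture at 37°C, 5% CO2.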

CK1a = molecular target: T6, CK1a (Homo sapiens, UniProt P48729+Q96SW2); assay: Western blot degradation of CK1a (hPBMC); type: cell-based; conditions: Table D16
T6 construct: evaluate the effects of the compounds of the present disclosure on the expression of target proteins in cells; endogenous in cells; host or cells: hPBMC
Summary of the method: as §1

[1] = molecular target: T7, human Cereblon WT GST-tagged protein (Homo sapiens, UniProt Q96SW2); assay: CRBN binding, HTRF (CEREBLON BINDING kit); conditions: Table II-2, CRBN binding screening, HTRF
T7 construct: purchased CISBIO 64BDCRBNPEH
Summary of the method: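 After 3 h at room temperature, emission at 665 and 620 nm was measured in a homogeneous time-resolved fluorescence format. Compounds competed with a Thalidomide-Re probe for GST-tagged wild-type human CRBN, which was labelled with a Eu anti-GST antibody.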

T1 sequence (P15170 whole entry): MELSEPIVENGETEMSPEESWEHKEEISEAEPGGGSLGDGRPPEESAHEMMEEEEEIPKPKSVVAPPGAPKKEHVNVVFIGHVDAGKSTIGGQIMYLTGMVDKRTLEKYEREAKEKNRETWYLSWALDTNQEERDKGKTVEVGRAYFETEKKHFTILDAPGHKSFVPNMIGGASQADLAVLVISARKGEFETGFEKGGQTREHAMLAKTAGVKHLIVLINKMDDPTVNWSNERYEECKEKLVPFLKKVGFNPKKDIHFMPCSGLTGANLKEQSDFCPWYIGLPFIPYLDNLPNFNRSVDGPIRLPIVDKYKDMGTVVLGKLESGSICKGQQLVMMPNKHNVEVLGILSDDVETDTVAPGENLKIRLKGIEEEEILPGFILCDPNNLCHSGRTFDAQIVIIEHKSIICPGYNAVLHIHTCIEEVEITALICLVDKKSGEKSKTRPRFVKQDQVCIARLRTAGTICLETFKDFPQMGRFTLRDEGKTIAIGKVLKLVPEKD
T1 sequence (Q96SW2 whole entry): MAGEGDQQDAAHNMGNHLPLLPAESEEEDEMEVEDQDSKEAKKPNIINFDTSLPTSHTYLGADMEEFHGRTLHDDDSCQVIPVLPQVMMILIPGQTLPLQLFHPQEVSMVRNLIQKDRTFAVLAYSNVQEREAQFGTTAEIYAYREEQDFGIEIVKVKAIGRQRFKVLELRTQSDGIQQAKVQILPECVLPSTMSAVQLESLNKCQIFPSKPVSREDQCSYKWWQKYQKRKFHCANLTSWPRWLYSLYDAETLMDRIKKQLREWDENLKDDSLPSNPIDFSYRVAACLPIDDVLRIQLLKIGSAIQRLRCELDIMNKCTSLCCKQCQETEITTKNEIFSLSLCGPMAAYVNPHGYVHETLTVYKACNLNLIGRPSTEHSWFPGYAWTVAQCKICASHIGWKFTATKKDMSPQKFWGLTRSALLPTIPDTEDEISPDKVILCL
T1 sequence (Q16531 whole entry partner): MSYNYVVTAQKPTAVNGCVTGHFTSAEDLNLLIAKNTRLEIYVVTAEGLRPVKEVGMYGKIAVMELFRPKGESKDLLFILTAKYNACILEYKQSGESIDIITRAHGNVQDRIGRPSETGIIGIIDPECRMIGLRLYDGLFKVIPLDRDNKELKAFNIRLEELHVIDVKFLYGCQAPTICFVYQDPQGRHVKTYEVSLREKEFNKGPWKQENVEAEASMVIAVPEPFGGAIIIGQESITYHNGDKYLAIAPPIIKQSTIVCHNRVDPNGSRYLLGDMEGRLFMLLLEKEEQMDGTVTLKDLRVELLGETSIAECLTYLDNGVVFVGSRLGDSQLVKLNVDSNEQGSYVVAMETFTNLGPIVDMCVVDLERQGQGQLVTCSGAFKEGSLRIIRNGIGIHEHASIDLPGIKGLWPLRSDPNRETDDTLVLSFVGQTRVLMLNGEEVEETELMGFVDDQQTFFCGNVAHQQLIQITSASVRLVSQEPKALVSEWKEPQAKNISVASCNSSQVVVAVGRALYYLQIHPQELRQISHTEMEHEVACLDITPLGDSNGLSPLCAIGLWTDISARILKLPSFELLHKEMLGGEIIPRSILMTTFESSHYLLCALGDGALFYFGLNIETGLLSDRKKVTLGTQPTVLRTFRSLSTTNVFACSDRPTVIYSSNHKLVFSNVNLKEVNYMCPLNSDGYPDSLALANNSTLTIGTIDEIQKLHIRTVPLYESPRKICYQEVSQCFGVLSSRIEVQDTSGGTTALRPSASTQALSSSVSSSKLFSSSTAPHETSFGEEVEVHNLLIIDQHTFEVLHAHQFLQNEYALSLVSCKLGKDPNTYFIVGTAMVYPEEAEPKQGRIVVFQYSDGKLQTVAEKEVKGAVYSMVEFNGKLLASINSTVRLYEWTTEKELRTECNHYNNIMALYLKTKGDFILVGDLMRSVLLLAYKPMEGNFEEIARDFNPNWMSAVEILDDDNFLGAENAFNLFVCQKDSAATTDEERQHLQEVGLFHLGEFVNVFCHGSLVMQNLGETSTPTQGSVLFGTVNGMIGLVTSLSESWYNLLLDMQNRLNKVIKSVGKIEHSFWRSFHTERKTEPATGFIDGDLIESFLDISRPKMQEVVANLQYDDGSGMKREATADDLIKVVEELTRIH
T4 sequence (Q9UKS7 whole entry): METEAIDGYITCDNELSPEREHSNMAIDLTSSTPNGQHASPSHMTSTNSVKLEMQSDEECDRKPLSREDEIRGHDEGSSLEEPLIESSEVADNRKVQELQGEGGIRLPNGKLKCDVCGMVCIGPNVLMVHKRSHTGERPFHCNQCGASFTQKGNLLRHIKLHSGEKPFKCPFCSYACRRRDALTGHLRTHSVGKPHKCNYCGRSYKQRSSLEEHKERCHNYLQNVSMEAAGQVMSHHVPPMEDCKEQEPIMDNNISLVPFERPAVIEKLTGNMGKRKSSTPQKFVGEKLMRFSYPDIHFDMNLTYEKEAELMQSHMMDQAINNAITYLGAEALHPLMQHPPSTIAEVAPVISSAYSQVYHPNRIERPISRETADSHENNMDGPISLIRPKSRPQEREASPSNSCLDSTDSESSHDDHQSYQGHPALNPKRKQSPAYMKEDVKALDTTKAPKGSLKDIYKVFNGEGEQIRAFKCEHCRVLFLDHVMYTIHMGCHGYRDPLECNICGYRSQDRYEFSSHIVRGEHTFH
T4 sequence (Q96SW2 whole entry): as the sequence (Q96SW2 whole entry) above
T4 sequence (Q16531 whole entry partner): as the sequence (Q16531 whole entry partner) above
T2 sequence (Q9UKT9 whole entry): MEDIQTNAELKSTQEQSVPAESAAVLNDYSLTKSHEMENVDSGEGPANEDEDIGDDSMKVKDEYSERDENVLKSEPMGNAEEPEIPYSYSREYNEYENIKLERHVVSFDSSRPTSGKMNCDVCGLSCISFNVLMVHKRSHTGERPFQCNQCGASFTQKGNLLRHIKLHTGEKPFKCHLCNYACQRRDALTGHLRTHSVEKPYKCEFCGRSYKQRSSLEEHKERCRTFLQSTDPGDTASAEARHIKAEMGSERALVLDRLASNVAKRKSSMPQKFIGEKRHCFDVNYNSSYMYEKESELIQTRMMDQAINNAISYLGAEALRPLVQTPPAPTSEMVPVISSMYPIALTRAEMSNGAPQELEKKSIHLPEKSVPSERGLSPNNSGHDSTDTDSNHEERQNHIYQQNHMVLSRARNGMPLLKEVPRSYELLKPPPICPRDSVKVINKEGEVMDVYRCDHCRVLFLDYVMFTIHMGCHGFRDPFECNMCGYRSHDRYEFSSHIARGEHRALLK
T2 sequence (Q96SW2 whole entry): as the sequence (Q96SW2 whole entry) above
T2 sequence (Q16531 whole entry partner): as the sequence (Q16531 whole entry partner) above
T3 sequence (Q13422 whole entry): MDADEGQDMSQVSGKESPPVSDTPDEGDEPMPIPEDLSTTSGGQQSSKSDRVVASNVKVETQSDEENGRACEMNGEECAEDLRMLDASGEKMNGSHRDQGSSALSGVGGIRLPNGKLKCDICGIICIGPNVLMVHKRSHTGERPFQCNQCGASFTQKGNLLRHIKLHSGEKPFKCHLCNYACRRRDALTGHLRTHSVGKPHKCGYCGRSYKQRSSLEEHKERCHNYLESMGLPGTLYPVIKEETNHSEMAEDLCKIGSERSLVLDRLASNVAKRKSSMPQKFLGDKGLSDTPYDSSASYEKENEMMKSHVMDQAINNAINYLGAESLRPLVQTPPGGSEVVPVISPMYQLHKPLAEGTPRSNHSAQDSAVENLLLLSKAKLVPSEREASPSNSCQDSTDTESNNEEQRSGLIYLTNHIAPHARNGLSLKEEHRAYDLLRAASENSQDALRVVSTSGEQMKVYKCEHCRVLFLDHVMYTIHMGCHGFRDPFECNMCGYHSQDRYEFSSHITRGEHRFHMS
T3 sequence (Q96SW2 whole entry): as the sequence (Q96SW2 whole entry) above
T3 sequence (Q16531 whole entry partner): as the sequence (Q16531 whole entry partner) above
T6 sequence (P48729 whole entry): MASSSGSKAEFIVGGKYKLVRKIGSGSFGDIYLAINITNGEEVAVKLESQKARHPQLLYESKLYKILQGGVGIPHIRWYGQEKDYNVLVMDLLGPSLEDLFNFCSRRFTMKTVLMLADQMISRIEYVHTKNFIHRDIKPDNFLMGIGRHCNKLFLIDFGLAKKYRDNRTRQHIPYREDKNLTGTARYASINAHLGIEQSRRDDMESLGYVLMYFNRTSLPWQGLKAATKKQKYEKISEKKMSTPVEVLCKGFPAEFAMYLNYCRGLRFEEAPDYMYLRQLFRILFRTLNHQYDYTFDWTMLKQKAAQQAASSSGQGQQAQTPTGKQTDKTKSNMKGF
T6 sequence (Q96SW2 whole entry): as the sequence (Q96SW2 whole entry) above
T6 sequence (Q16531 whole entry partner): as the sequence (Q16531 whole entry partner) above
T7 sequence (Q96SW2 whole entry): as the sequence (Q96SW2 whole entry) above

| IC50 (MCF7) [µM] | inhibition at 0.5 µM ([1]; at 0.5µM, read-out: Inhibition rate (%) at 0.5µM) [%] | inhibition at 2 µM ([1]; at 2 µM, read-out: Inhibition rate (%) at 2 µM) [%] | SMILES | Degradation of substrate protein GSPT1 (substrate protein remaining %) (GSPT1) | Degradation of substrate protein IKZF3 (substrate protein remaining %) (IKZF3) | Degradation of substrate protein IKZF1 (substrate protein remaining %) (IKZF1) | Degradation of substrate protein IKZF2 (substrate protein remaining %) (IKZF2) | Degradation of substrate protein WEE1 (substrate protein remaining %) (WEE1) | Degradation of substrate protein CKla (substrate protein remaining %) (CK1a) |
| --- | --- | --- | --- | --- | --- | --- | --- | --- | --- |
| 1 to 5 | – | – | O=C1CCC(c2cnc(CO)c(F)c2)C(=O)N1 (stereo not shown) [GT-07049, 3-(5-Fluoro-6-(hydroxymethyl)pyridin-3-yl)piperidine-2,6-dione] | A (A is defined as 0% ≤ substrate protein remaining % ≤ 80%) | A (A is defined as 0% ≤ substrate protein remaining % ≤ 80%) | B (B is defined as substrate protein remaining % > 80%) | A (A is defined as 0% ≤ substrate protein remaining % ≤ 80%) | B (B is defined as substrate protein remaining % > 80%) | A (A is defined as 0% ≤ substrate protein remaining % ≤ 80%) |
| 1 to 5 | – | – | O=C1CCC(c2ncccc2CO)C(=O)N1 (stereo not shown) [GT-07370, 3-(3-(Hydroxymethyl)pyridin-2-yl)piperidine-2,6-dione] | A (A is defined as 0% ≤ substrate protein remaining % ≤ 80%) | B (B is defined as substrate protein remaining % > 80%) | B (B is defined as substrate protein remaining % > 80%) | B (B is defined as substrate protein remaining % > 80%) | B (B is defined as substrate protein remaining % > 80%) | A (A is defined as 0% ≤ substrate protein remaining % ≤ 80%) |
| – | 30 to 40 | 53 to 60 | O=C1CCC(c2cncc(CCl)c2)C(=O)N1 (stereo not shown) [GT-06991, 3-(5-(Chloromethyl)pyridin-3-yl)piperidine-2,6-dione] | B (B is defined as substrate protein remaining % > 80%) | B (B is defined as substrate protein remaining % > 80%) | B (B is defined as substrate protein remaining % > 80%) | A (A is defined as 0% ≤ substrate protein remaining % ≤ 80%) | B (B is defined as substrate protein remaining % > 80%) | B (B is defined as substrate protein remaining % > 80%) |
| – | – | – | O=C1CCC(Nc2cnccc2CO)C(=O)N1 (stereo not shown) [GT-07559, 3-((4-(Hydroxymethyl)pyridin-3-yl)amino)piperidine-2,6-dione] | A (A is defined as 0% ≤ substrate protein remaining % ≤ 80%) | A (A is defined as 0% ≤ substrate protein remaining % ≤ 80%) | A (A is defined as 0% ≤ substrate protein remaining % ≤ 80%) | A (A is defined as 0% ≤ substrate protein remaining % ≤ 80%) | A (A is defined as 0% ≤ substrate protein remaining % ≤ 80%) | A (A is defined as 0% ≤ substrate protein remaining % ≤ 80%) |
| – | – | – | NCc1cc(N2CCC(=O)NC2=O)cnc1F [GT-07729, 1-(5-(Aminomethyl)-6-fluoropyridin-3-yl)dihydropyrimidine-2,4(1H,3H)-dione] | A (A is defined as 0% ≤ substrate protein remaining % ≤ 80%) | A (A is defined as 0% ≤ substrate protein remaining % ≤ 80%) | A (A is defined as 0% ≤ substrate protein remaining % ≤ 80%) | A (A is defined as 0% ≤ substrate protein remaining % ≤ 80%) | A (A is defined as 0% ≤ substrate protein remaining % ≤ 80%) | B (B is defined as substrate protein remaining % > 80%) |
| – | – | – | O=Cc1cncnc1NC1CCC(=O)NC1=O (stereo not shown) [GT-07805, 4-((2,6-Dioxopiperidin-3-yl)amino)pyrimidine-5-carbaldehyde] | B (B is defined as substrate protein remaining % > 80%) | A (A is defined as 0% ≤ substrate protein remaining % ≤ 80%) | A (A is defined as 0% ≤ substrate protein remaining % ≤ 80%) | A (A is defined as 0% ≤ substrate protein remaining % ≤ 80%) | B (B is defined as substrate protein remaining % > 80%) | B (B is defined as substrate protein remaining % > 80%) |
